Activity calls are given as the source filed them. The rule behind the calls is not given here.

These results are taken from PubChem BioAssay AID1259411 (Chemical Carcinogenesis Research Information System (CCRIS), 2018).

The test system of the series is rodent carcinogenicity bioassays, tumor incidence. The series can be described thus: CCRIS carcinogenicity studies. A digest of the protocol: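 NCI-built, expert-reviewed records of carcinogenicity and related test outcomes (mutagenicity, tumor promotion/inhibition) compiled from published and report sources, historical span 1985-2011, not updated.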

With `CC(C)c1ccccc1`, the carcinogen call is, setting by setting: (Species: Mouse, Strain/Sex: B5C3F1/ Female (50/Group), Route: Inhalation, Dose: 0, 125, 250, 500 ppm for 6 hr plus 12 min per d, 5 d/wk, 105 wk (Study duration: 105 wk), Dose: 0, 125, 250, 500 ppm for 6 hr plus 12 min per d, 5 d/wk, 105 wk (Study duration: 105 wk), Tumor Site: Type of Lesion: Lung: Alveolar/bronchiolar adenoma (1/50; 26/50; 36/50; 38/50), Alveolar/bronchiolar carcinoma (3/50, 16/50, 20/50, 34/, Tumor Site: Type of Lesion: Lung: Alveolar/bronchiolar adenoma (1/50; 26/50; 36/50; 38/50), Alveolar/bronchiolar carcinoma (3/50, 16/50, 20/50, 34/) “active; positive. authors describe as clear evidence of carcinogenicity based on increas”; (Species: Mouse, Strain/Sex: B5C3F1/ Male (50/Group), Route: Inhalation, Dose: 0, 250, 500, 1,000 ppm for 6 hr plus 12 min per d, 5 d/wk, 105 wk (Study duration: 105 wk), Dose: 0, 250, 500, 1,000 ppm for 6 hr plus 12 min per d, 5 d/wk, 105 wk (Study duration: 105 wk), Tumor Site: Type of Lesion: Lung: Alveolar/bronchiolar adenoma (13/50; 31/50; 29/50), Alveolar/bronchiolar carcinoma (9/50, 19/50, 32/50, 33/, Tumor Site: Type of Lesion: Lung: Alveolar/bronchiolar adenoma (13/50; 31/50; 29/50), Alveolar/bronchiolar carcinoma (9/50, 19/50, 32/50, 33/) “active; positive. authors describe as clear evidence of carcinogenicity based on increas”; (Species: Rat, Strain/Sex: F344/N / Female (50/Group), Route: Inhalation, Dose: 0, 250, 500, 1,000 ppm for 6 hr plus 12 min per d, 5 d/wk, 105 wk (Study duration: 105 wk), Dose: 0, 250, 500, 1,000 ppm for 6 hr plus 12 min per d, 5 d/wk, 105 wk (Study duration: 105 wk), Tumor Site: Type of Lesion: Nose (respiratory epithelium): Adenoma (0/50; 5/48; 4/50; 3/50)) “inactive; negative. authors describe as some evidence of carcinogenicity”; (Species: Rat, Strain/Sex: F344/N / Male (50/Group), Route: Inhalation, Dose: 0, 250, 500, 1,000 ppm for 6 hr plus 12 min per d, 5 d/wk, 105 wk (Study duration: 105 wk), Dose: 0, 250, 500, 1,000 ppm for 6 hr plus 12 min per d, 5 d/wk, 105 wk (Study duration: 105 wk), Tumor Site: Type of Lesion: Nose (respiratory epithelium): Adenoma (0/50, 7/50, 18/49, 10/50, Renal tubule: Adenoma (1/50; 4/50; 5/50; 4/50), Renal, Tumor Site: Type of Lesion: Nose (respiratory epithelium): Adenoma (0/50, 7/50, 18/49, 10/50, Renal tubule: Adenoma (1/50; 4/50; 5/50; 4/50), Renal) “active; positive. authors describe as clear evidence of carcinogenicity except that test”.

Turning to `CC(=O)OCN(N=O)c1ccccc1`, the carcinogen call was “active; positive” (Species: HAMSTER, Strain/Sex: SYRIAN/FEMALE, Route: SUBCUTANEOUS, Dose: 0, 1.56, 3.13 MG/KG/WK IN OLIVE OIL FOR LIFE (STUDY DURATION: 60 WK), Dose: 0, 1.56, 3.13 MG/KG/WK IN OLIVE OIL FOR LIFE (STUDY DURATION: 60 WK), Tumor Site: Type of Lesion: INJECTION SITE: TUMOR); “inactive; negative” (Species: HAMSTER, Strain/Sex: SYRIAN/FEMALE, Route: SUBCUTANEOUS, Dose: 0, 6.25, 12.5 MG/KG/WK IN OLIVE OIL FOR 4 WK (STUDY DURATION: 60 WK), Dose: 0, 6.25, 12.5 MG/KG/WK IN OLIVE OIL FOR 4 WK (STUDY DURATION: 60 WK)); “inactive; negative” (Species: HAMSTER, Strain/Sex: SYRIAN/MALE, Route: SUBCUTANEOUS, Dose: 0, 1.56, 3.13 MG/KG/WK IN OLIVE OIL FOR LIFE (STUDY DURATION: 60 WK), Dose: 0, 1.56, 3.13 MG/KG/WK IN OLIVE OIL FOR LIFE (STUDY DURATION: 60 WK)); “inactive; negative” (Species: HAMSTER, Strain/Sex: SYRIAN/MALE, Route: SUBCUTANEOUS, Dose: 0, 6.25, 12.5 MG/KG/WK IN OLIVE OIL FOR 4 WK (STUDY DURATION: 60 WK), Dose: 0, 6.25, 12.5 MG/KG/WK IN OLIVE OIL FOR 4 WK (STUDY DURATION: 60 WK)).

In the case of `CCCCN(C)N=O`, the carcinogen call by setting is: (Species: HAMSTER, Strain/Sex: SYRIAN/FEMALE, Route: GAVAGE, Dose: 0, 2.5, 5 MG/KG 1/WK FOR 23-30 WK (TOTAL DOSE: 0; 0.65; 1.0 MMOL) (STUDY DURATION: LIFETIME), Dose: 0, 2.5, 5 MG/KG 1/WK FOR 23-30 WK (TOTAL DOSE: 0; 0.65; 1.0 MMOL) (STUDY DURATION: LIFETIME), Tumor Site: Type of Lesion: LIVER: HEPATOCELLULAR ADENOMA, LUNG: ALVEOLAR/BRONCHIAL ADENOMA, NASAL MUCOSA: CARCINOMA, ADENOMA, FORESTOMACH: SQUAMOUS, Tumor Site: Type of Lesion: LIVER: HEPATOCELLULAR ADENOMA, LUNG: ALVEOLAR/BRONCHIAL ADENOMA, NASAL MUCOSA: CARCINOMA, ADENOMA, FORESTOMACH: SQUAMOUS) “active; positive”; (Species: HAMSTER, Strain/Sex: SYRIAN/MALE, Route: GAVAGE, Dose: 0, 2.5, 5 MG/KG 1/WK FOR 23-30 WK (TOTAL DOSE: 0; 0.65; 1.0 MMOL) (STUDY DURATION: LIFETIME), Dose: 0, 2.5, 5 MG/KG 1/WK FOR 23-30 WK (TOTAL DOSE: 0; 0.65; 1.0 MMOL) (STUDY DURATION: LIFETIME), Tumor Site: Type of Lesion: LIVER: HEPATOCELLULAR ADENOMA, HEMANGIOSARCOMA, LUNG: ALVEOLAR/BRONCHIAL ADENOMA, NASAL MUCOSA: CARCINOMA, ADENOMA, FORE, Tumor Site: Type of Lesion: LIVER: HEPATOCELLULAR ADENOMA, HEMANGIOSARCOMA, LUNG: ALVEOLAR/BRONCHIAL ADENOMA, NASAL MUCOSA: CARCINOMA, ADENOMA, FORE) “active; positive”; (Species: RAT, Strain/Sex: F344/FEMALE, Route: INTRAVESICULAR, Dose: 0, 3 MG IN 0.2 ML ETHANOL: DEIONIZED WATER (1:3) 2/WK FOR 17 WK (TOTAL DOSE 0.9 MMOL) (STUDY DURATION: LIFESPAN), Tumor Site: Type of Lesion: ESOPHAGUS: TUMOR, LIVER: HEMANGIOSARCOMA) “active; positive”.

For the compound `Cc1cc2c3c(cccc3c1)-c1ccccc1-2`, the carcinogen call (Species: MOUSE, Strain/Sex: CD-1/FEMALE, Route: INTRAPERITONEAL, Dose: 0, 3.46, 17.3 UMOL (TOTAL DOSE) IN DMSO ADMINISTERED ON DAYS 1,8, AND 15 OF LIFE (STUDY DURATION: 52 WK), Dose: 0, 3.46, 17.3 UMOL (TOTAL DOSE) IN DMSO ADMINISTERED ON DAYS 1,8, AND 15 OF LIFE (STUDY DURATION: 52 WK), Tumor Site: Type of Lesion: LUNG: TUMORS, LIVER: TUMORS) is “active; positive” and the carcinogen call (Species: MOUSE, Strain/Sex: CD-1/MALE, Route: INTRAPERITONEAL, Dose: 0, 3.46, 17.3 UMOL (TOTAL DOSE) IN DMSO ADMINISTERED ON DAYS 1,8, AND 15 OF LIFE (STUDY DURATION: 52 WK), Dose: 0, 3.46, 17.3 UMOL (TOTAL DOSE) IN DMSO ADMINISTERED ON DAYS 1,8, AND 15 OF LIFE (STUDY DURATION: 52 WK), Tumor Site: Type of Lesion: LUNG: TUMORS, LIVER: TUMORS) is “active; positive”.

Regarding `Cc1noc(NS(=O)(=O)c2ccc(N)cc2)c1C`, the carcinogen call is, setting by setting: (Species: MOUSE, Strain/Sex: B6C3F1/FEMALE, Route: GAVAGE, Dose: 0, 500, 2000 MG/KG IN 0.5% AQ CMC, Dose: 0, 500, 2000 MG/KG IN 0.5% AQ CMC) “inactive; negative”; (Species: MOUSE, Strain/Sex: B6C3F1/MALE, Route: GAVAGE, Dose: 0, 500, 2000 MG/KG IN 0.5% AQ CMC, Dose: 0, 500, 2000 MG/KG IN 0.5% AQ CMC) “inactive; negative”; (Species: RAT, Strain/Sex: F344/FEMALE, Route: GAVAGE, Dose: 0, 100, 400 MG/KG IN 0.5% AQ CMC, Dose: 0, 100, 400 MG/KG IN 0.5% AQ CMC) “inactive; negative”; (Species: RAT, Strain/Sex: F344/MALE, Route: GAVAGE, Dose: 0, 100, 400 MG/KG IN 0.5% AQ CMC, Dose: 0, 100, 400 MG/KG IN 0.5% AQ CMC) “inactive; negative”.

Turning to `CCSCCC(N)C(=O)O` (configuration not stated), the carcinogen call is “active; positive” (Species: RAT, Strain/Sex: F344/MALE, Route: ORAL, Dose: 0, 0.05% IN METHYL-DEFICIENT DIET FOR 8 MO, STUDY DURATION: 20 MO, Dose: 0, 0.05% IN METHYL-DEFICIENT DIET FOR 8 MO, STUDY DURATION: 20 MO, Tumor Site: Type of Lesion: LIVER: HEPATOCELLULAR CARCINOMA); “active; positive” (Species: RAT, Strain/Sex: F344/MALE, Route: ORAL, Dose: 0.25% IN DIET FOR 24 WK, Tumor Site: Type of Lesion: LIVER); “active; positive” (Species: RAT, Strain/Sex: OSBORNE-MENDEL/MALE,FEMALE, Route: ORAL, Dose: 0.25% IN BASAL DIET FOR 8-9 MO, Tumor Site: Type of Lesion: LIVER: CARCINOMA); “active; positive” (Species: RAT, Strain/Sex: SPRAGUE-DAWLEY, Route: ORAL, Dose: 0.25% IN DIET FOR 8 MO, Tumor Site: Type of Lesion: LIVER: CARCINOMA); “active; positive” (Species: RAT, Strain/Sex: WISTAR/MALE,FEMALE, Route: ORAL, Dose: 0.25% IN BASAL DIET FOR 8 MO THEN STOCK DIET FOR 2 MO, Tumor Site: Type of Lesion: LIVER: CARCINOMA).
